{
  "source": "patent US11311598B2",
  "about": "“Peptides and analogs for use in the treatment of oral mucositis” (Soligenix, Inc., priority 2013, dated 2022)",
  "key": {"[1]": {"test_system": "central nervous system (CNS)", "assay": "effects on the central nervous system in any study", "format": "in vivo", "conditions": "any study at any dose level", "procedure": "(§1) No effects of RIVPA (SEQ ID NO. 5) have been observed on the central nervous system (CNS) in any study at any dose level and little or no radiolabelled RIVPA (SEQ ID NO. 5) was found in the mouse CNS at dose levels of either 20 or 90 mg/kg."}, "[2]": {"test_system": "S. aureus (Catalog No. 29213, ATCC)", "assay": "S. aureus thigh abscess infection model in neutropenic mice", "format": "in vivo, mouse", "conditions": "neutropenic female Swiss albino mice, 50 mg/kg IM 24 h prior to infection; 24 h after infection", "procedure": "Female Swiss albino mice (N=8/group) were rendered neutropenic by treatment with Cp (100 mg/kg), 3 and 1 days before IM infection with S. aureus (Catalog No. 29213, ATCC, ^˜9.5×10^5 cfu). RIVPA (SEQ ID NO. 5) (50 mg/kg) was administered IM 24 h prior to infection and vancomycin (100 mg/kg) was administered SC at 1, 6 and 18 h after infection. The number of bacterial cfu present in the infected thigh was assessed 24 h after initiation of infection in each group."}, "[3]": {"test_system": "CNS receptors and ion channels", "assay": "battery of CNS receptors and ion channels in vitro", "format": "binding", "procedure": "as §1"}, "leukopenic animals": {"test_system": "leukopenic animals", "assay": "infection studies in leukopenic animals (antibiotic interference)", "format": "in vivo"}, "[4]": {"conditions": "mice"}, "[5]": {"test_system": "primary human leukemia cells", "assay": "proliferation of primary human leukemia cells in vitro", "format": "cell-based"}, "CD-1 mice": {"test_system": "CD-1 mice", "assay": "recovery of circulating blood cells after induction of leukopenia", "format": "in vivo, mouse", "conditions": "Cp-induced leukopenia, 20 or 50 mg/kg IV on Days 5, 7, 9 and 11", "procedure": "Leukopenia was induced with 2 IP injections of Cp (150 mg/kg on Day 1 and 100 mg/kg on Day 4), resulting in well-established leukopenia by Day 4 that persisted until approximately Day 10. Saline or RIVPA (SEQ ID NO. 5) (20 or 50 mg/kg) was administered IV on Days 5, 7, 9 and 11. Six animals per group were sacrificed on each of Days 6, 8, 10, 12 and 14 and evaluated for complete blood count and differential. Neither the levels nor dynamics of the total leukocyte and differential white blood cell counts were altered during the course of recovery when compared to the vehicle control group (FIG. 15)."}, "[6]": {"test_system": "male Golden Syrian hamsters", "assay": "radiation-induced oral mucositis in hamsters (fractionated radiation)", "format": "in vivo, hamster", "conditions": "for duration of severe oral mucositis: fractionated radiation model", "procedure": "These studies confirmed that optimal dosing of RIVPA (SEQ ID NO. 5) involves dosing every third day and that the 25 mg/kg dose level is effective. In this model, cannulated male Golden Syrian hamsters were treated with 7.5 Gy of radiation, directed at the everted left cheek pouch, on Days 0, 1, 2, 3, 6, 7, 8 and 9. Mucositis was evaluated every second day between Days 7 and 35, with peak mucositis severity generally occurring around Day 19. In the first study, RIVPA (SEQ ID NO. 5) (25 mg/kg IV) was administered either every third day starting on Day 0 and continuing until Day 33 (Q3d d0-33), or on days of radiation therapy (Days 0, 1, 2, 3, […], 7, 8, 9) or every third day starting on Day 6 and continuing to Day 24 (Q3d d6-24). On days where both RIVPA (SEQ ID NO. 5) and radiation was administered, RIVPA (SEQ ID NO. 5) was given 2 hours after radiation. […] A follow-up study was undertaken to evaluate dosing with 25 mg/kg IV RIVPA (SEQ ID NO. 5) Q3d d0-33, on days of radiation, or every third day during radiation treatment (i.e., Days 0, 3, 6 and 9)."}, "[7]": {"test_system": "Klebsiella pneumoniae (Catalog No. 43816, ATCC)", "assay": "Klebsiella peritoneal infection model", "format": "in vivo, mouse", "procedure": "RIVPA (SEQ ID NO. 5) treatment (24 mg/kg) was administered either IP (24 h prior to infection or 4 h post-infection) or IV (4 h post-infection) to female Balb/c mice (N=8/group) inoculated with Klebsiella pneumoniae (Catalog No. 43816, ATCC) at either 2.8×10^5 cfu (FIG. 13—panel A) or 5.3×10^2 cfu (FIG. 13—panel B) and survival was monitored over 24 h. A survival endpoint is shown for animals receiving the higher inoculum of bacteria (panel A)."}, "[8]": {"assay": "Phase 1 study, human pharmacokinetics", "format": "in vivo", "procedure": "In the single-dose phase of a healthy volunteer Phase 1 trial, RIVPA (SEQ ID NO. 5) was rapidly eliminated, with plasma levels decreasing to less than 10 percent of the maximum concentration (Cmax) within 9 min after the start of the 4-minute IV infusion. Following the rapid decline, a slower elimination phase was observed. […] Maximum plasma concentrations and total exposure levels were dose-proportional and clearance of RIVPA (SEQ ID NO. 5) from the circulation was rapid, consistent with the mouse and NHP experience.\nIn light of the high clearance and short elimination half-life, accumulation following daily injection was not expected to occur."}, "male C57BL/6 mice": {"test_system": "male C57BL/6 mice", "assay": "DSS-induced colitis model", "format": "in vivo, mouse", "procedure": "The ability of IV RIVPA (SEQ ID NO. 5), administered pre-emptively or therapeutically, to directly protect GI mucosal surfaces was confirmed in a DSS-induced colitis model. In this model, DSS was administered as a 3% DSS solution in the drinking water of male C57BL/6 mice from Days 0 to 5 of the study. Colitis was monitored by video endoscopy on Days 7, 14 and 21. RIVPA (SEQ ID NO. 5) (25 mg/kg IV) was administered every third day from Days 0 to 18 (Q3d d0-18), from Days 3 to 18 (Q3d d3-18) or from Days 6 to 18 (Q3d d6-18). […] However, reduction in Day 7 scores was only observed in groups which had received at least 2 doses of RIVPA (SEQ ID NO. 5) by that time (i.e., Q3d d0-18 and Q3d d3-18 but not Q3d d6-18). […] Statistical analysis was undertaken using t-tests and an asterisk indicates statistically significant differences from control (p<0.05)."}},
  "note": "Where no end group is shown, it is not given here.",
  "data": [
    {"substance": "RIVPA-NH2 [RIVPA (SEQ ID NO. 5), RIVPA]", "values": [
      {"measurement": "effects on the central nervous system (CNS)", "setting": "[1]", "result": "No effects"},
      {"measurement": "bacterial load in the infected thigh", "setting": "[2]", "result": "significantly reduced"},
      {"measurement": "interaction with CNS receptors and ion channels", "setting": "[3]", "result": "No interaction was detected"},
      {"measurement": "interference with antibiotic efficacy", "setting": "leukopenic animals", "result": "no interference"},
      {"measurement": "PK clearance from the circulation", "setting": "[4]", "result": "within minutes"},
      {"measurement": "proliferation of primary leukemia cells", "setting": "[5]", "result": "did not promote the proliferation"},
      {"measurement": "recovery of circulating blood cell populations after induction of leukopenia", "setting": "CD-1 mice", "result": "did not alter"},
      {"measurement": "treatment effectiveness on mucositis", "setting": "[6]; first study, 25 mg/kg IV every third day Day 0 to Day 33 (Q3d d0-33)", "result": "most effective"},
      {"measurement": "treatment effectiveness on mucositis", "setting": "[6]; first study, 25 mg/kg IV every third day Day 6 to Day 24 (Q3d d6-24)", "result": "not beneficial"},
      {"measurement": "treatment effectiveness on mucositis", "setting": "[6]; first study, 25 mg/kg IV on days of radiation", "result": "most effective"},
      {"measurement": "treatment effectiveness on mucositis", "setting": "[6]; follow-up study, 25 mg/kg IV every third day during radiation (Days 0, 3, 6 and 9)", "result": "optimal"},
      {"measurement": "duration of severe oral mucositis", "setting": "[6]; FIG. 1", "result": "reduces"},
      {"measurement": "duration of severe oral mucositis", "setting": "[6]; optimized dosing regimen, FIG. 2", "result": "reduces"},
      {"measurement": "severity and duration of mucositis", "setting": "[6]; hamster, 7.5 Gy to left cheek pouch on Days 0, 1, 2, 3, 6, 7, 8 and 9, RIVPA IV", "result": "significantly reduced"},
      {"measurement": "systemic versus local administration", "setting": "[7]; 24 mg/kg IV vs IP", "result": "as good or better than local administration"},
      {"measurement": "survival at the lower inoculum", "setting": "[7]; 5.3×10^2 cfu, 24 h", "result": "survived in all groups"},
      {"measurement": "survival", "setting": "[7]; female Balb/c mice, 24 mg/kg IP or IV, 24 h", "result": "increased survival"},
      {"measurement": "pre-dose concentrations", "setting": "[8]; daily for 7 days, Days 5, 6, 7 and Day 8 (24 h after start of infusion on Day 7), all subjects", "result": "below the lower limit of quantitation (LLOQ)"},
      {"measurement": "clearance from the circulation", "setting": "[8]; human subjects, IV administration", "result": "within minutes"},
      {"measurement": "Tmax", "setting": "[8]; human, plasma, intravenous, after the start of infusion, dose range 0.15 mg/kg to 8 mg/kg, read-out: mean time of maximum concentration (Tmax)", "result": "4 to 4.8", "unit": "min"},
      {"measurement": "maximum plasma concentrations and total exposure levels versus dose", "setting": "[8]; single-dose phase", "result": "dose-proportional"},
      {"measurement": "plasma levels relative to the maximum concentration (Cmax)", "setting": "[8]; within 9 min after the start of the 4-minute IV infusion, single-dose phase", "result": "less than 10%"},
      {"measurement": "endoscopic colitis severity score", "setting": "male C57BL/6 mice; Day 7, Q3d d0-18", "result": "reduction"},
      {"measurement": "endoscopic colitis severity score", "setting": "male C57BL/6 mice; Day 7, Q3d d3-18", "result": "reduction"},
      {"measurement": "endoscopic colitis severity score", "setting": "male C57BL/6 mice; Day 14, all regimens, 25 mg/kg IV every third day", "result": "statistically significant reduction"},
      {"measurement": "endoscopic colitis response", "setting": "male C57BL/6 mice; Day 21, all 3 treatment groups", "result": "responding in a similar manner"},
      {"measurement": "edema and necrosis, histopathology of the colon", "setting": "male C57BL/6 mice; Day 21, some RIVPA treated groups", "result": "statistically significantly decreased"},
      {"measurement": "severity of DSS-induced colitis", "setting": "male C57BL/6 mice; endoscopy days 7, 14, 21 and histopathology day 21, FIG. 3", "result": "reduces"}
    ]}
  ]
}
